Laboratory results reported in patent US20190038628A1, “USE OF INHIBITORS OF THE ACTIVITY OR FUNCTION OF PI3K FOR THE TREATMENT OF PRIMARY SJOGREN'S SYNDROME” (Novartis AG, priority 2016, published 2019).

What was measured:
[1] = tested on: Mouse BCR transgenic B cells; experiment: Antigen presentation of mouse BCR transgenic B cells (antigen-loading via MHC II); assay type: cell-based; settings: Mouse BCR tg B cell; stimulus HEL; mean of at least four experiments; read-out: IC50 APC function
Description: Purification of CD19^+ splenic B cells from MD4 HEL BcR Tg mice MD4 HEL BcR transgenic B10.BR (MD4 B10.BR) mice were a kind gift from Prof. Jose Moreno (Research Unit on Autoimmune Diseases, Centro Medico Nacional Siglo XXI, Mexico).
The spleens were isolated from MD4 B10.BR and non-transgenic litter control B10.BR mice after sacrificed by exposure to excess amount of isoflurane. The isolated spleens were suspended in RPMI1640 (Invitrogen, #31870), and dissociated by GentleMACS Dissociator (Miltenyi Biotec), and filtrated with Cell Strainer (BD Falcon, 70 μm mesh, #352350). […] The purity was determined via the proportion of CD19 cells in the separated fraction in FACS analysis, and was more than 95%.
Purified B cells were re-suspended in 50 μl of ice-cold FACS buffer (PBS supplemented with 0.1% azide and 0.1% BSA). […] Stained cell samples were washed with 5 ml of ice-cold FACS buffer twice, and analyzed by FACS Calibur (BD Bioscience). […]
FACS Data was analyzed, and their mean fluorescence intensity (MFI) were calculated with FlowJo software (Tree Star Inc). The IC50 values were calculated with GraphPad PRISM ver 6.0 software (GraphPad Software Inc). […]

PI3K/Akt pathway = experiment: pAkt in B cells in stimulated whole blood clinical samples after single oral administration; assay type: in vivo; settings: healthy human subjects
Method: For assessment of the in vivo effects of compound A on human B cell activation measured as Akt phosphorylation vlinical samples were prepared from whole blood using a Na-Heparin monovette system.
Whole blood was then incubated with either anti-IgM/IL-4 (7.5 μg/ml of anti-IgM [Southern Biotech] and 7.5 ng/ml of IL-4 [R&D]) or with PBS (unstimulated sample). Incubation was performed using 95 μl of blood (in duplicates) in plate format within 1 h after blood collection. Cultures were mixed well by gently pipetting up and down and incubated at 37° C. (in incubator, 5% CO2). After 30 min whole blood was lysed and fixed with pre-warmed (37° C.) BD PhosFlow-Lyse/Fix buffer (1600 μl) for 20 minutes at 37° C. (water bath) in the dark. The lysed and fixed blood samples were immediately frozen and stored at −80° C. until further processing.
Clinical samples were processed within one week after blood collection. After thawing was completed (at 37° C. water-bath), samples were centrifuged at 502 g (1580 rpm) for 5 min at room temperature. Then pelleted cells were washed with 500 μL ice cold BD Phosflow Perm II buffer, mixed well and kept on ice for 30-35 minutes. […]
Samples were analyzed on the same day. […] Data was calculated as percent inhibition of pAkt relative to the baseline value.

IC50 [1]: 395 nM
SMILES: CCC(=O)N1CC[C@H](Nc2ncnc3c2CN(c2cnc(OC)c(C(F)(F)F)c2)CC3)C1 [Compound A, 1-{(S)-3-[6-(6-Methoxy-5-trifluoromethyl-pyridin-3-yl)-5,6,7,8-tetrahydro-pyrido[4,3-d]pyrimidin-4-ylamino]-pyrrolidin-1-yl}-propan-1-one]
pathway inhibition (PI3K/Akt) (PI3K/Akt pathway; single administration of 80 mg, over 12 hours): greater than 80%
inhibition of the PI3K/Akt pathway (in words) (PI3K/Akt pathway; single oral administration): dose-, concentration- and time-dependent inhibition
